According to US10449223B2, “Use of dehydroeburicoic acid from Antrodia camphorata in the treatment or prevention of diabetes and hyperlipidemia” (priority 2016, dated 2019):

Legend:
GLUT4 [1] = experiment: GLUT4 protein expression in C2C12 myotube cells (Western blot); type: cell-based; conditions: 100 nM insulin, 25 min
Experimental: (§1) C2C12 skeletal myoblasts (ATCC, CRL-1772) were maintained in growth media consisting of Dulbecco's modified Eagle's medium (DMEM) (Gibco BRL) supplemented with 10% fetal bovine serum (FBS) (Hyclone) and 100 U/mL penicillin/100 μg/mL streptomycin (Gibco BRL) and split 1:4 using 0.05% trypsin when 80% confluent. Myoblasts were diluted and placed in a 9 cm dish. Cells were cultured to achieve 80-90% confluency, and growth medium was changed as 2% FBS/DMEM every 24 h for 5-7 days.
(§2) Determination of GLUT4 and phospho-Akt (Ser^473)/Total Akt Proteins in Vitro: Differentiated C2C12 cells were serum starved in DMEM/BSA (2 h at 37° C.) prior to incubation either with test compounds (TT at 1, 5, 10, and 25 μg/mL) or with vehicle (DMSO containing saline, final concentration of DMSO=0.2%) for 30 min or with 100 nM insulin for 25 min.
(§3) Following treatment, cells were washed three times with ice-cold PBS and separated into two portions. A portion of the cells was subsequently lysed in RIPA buffer (50 mM Tris-HCl, pH 8, 150 mM NaCl, 1% NP-40, 0.5% sodium deoxycholate, 0.1% SDS) supplemented with complete protease inhibitor cocktail (Roche) and phosphatase inhibitors and then centrifuged at 20000 g for […].
Supernatant protein was collected and stored at −20° C. Another portion of cells was homogenized with buffer (250 mmol/L sucrose, 50 mmol/L Tris, and 0.2 mmol/L edetic acid, pH 7.4) at 4° C., as previously described. The homogenates were centrifuged at 9000 g for 10 min (4° C.). The pellet was suspended with 0.5 mL of homogenization buffer and then centrifuged, repeated three times. The three supernatants were collected, mixed, and centrifuged at 190000 g for 60 min (4° C.). The pellet was resuspended with 0.2 mL of homogenization buffer, stored at −20° C., and performed within membrane.
(§4) Protein concentration was determined via BCA assay (Pierce). Equal amounts of protein were then diluted four times in SDS sample buffer and subjected to SDS-PAGE and were detected by Western blotting with antibodies specific for Akt, phosph-Akt Ser^473, and GLUT4. The density blotting was analyzed using Alpha Easy FCsoftware (Alpha Innotech Corp., Randburg, South Africa).

Akt = experiment: phospho-Akt (Ser473)/total Akt in C2C12 myotube cells (Western blot); type: cell-based; conditions: 100 nM insulin, 25 min
Experimental: as §1, §2, §3
Supernatant protein was collected and stored at −20° C. Another portion of cells was homogenized with buffer (250 mmol/L sucrose, 50 mmol/L Tris, and 0.2 mmol/L edetic acid, pH 7.4) at 4° C., as previously described. The homogenates were centrifuged at 9000 g for 10 min (4° C.). The pellet was suspended with 0.5 mL of homogenization buffer and then centrifuged, repeated three times. The three supernatants were collected, mixed, and centrifuged at 190000 g for 60 min (4° C.). […]
as §4

PEPCK = experiment: Semiquantitative RT-PCR, liver tissue: PEPCK mRNA; type: in vivo, C57BL/6J mice; conditions: STZ-induced diabetic mice; Metf 300 mg/kg/day oral, 28 days; relative to CON group (so in the source)
Experimental: (§5) Total RNA from liver tissue was isolated with a Trizol Reagent (Molecular Research Center, Inc., Cincinnati, Ohio) according to the manufacturer's directions. The integrity of the extracted total RNA was examined by 2% agarose gel electrophoresis, and the RNA concentration was determined by the ultraviolet (UV) light absorbency at 260 nm and 280 nm (Spectrophotometer U-2800A, Hitachi). Total RNA (1 μg) was reverse transcribed to cDNA in a reaction mixture containing buffer, and 5 μL Moloney murine leukemia virus reverse transcriptase (Epicentre, Madison, Wis., USA). The polymerase chain reaction (PCR) was performed in a final 25 μL containing 1 U Blend Taq-Plus (TOYOBO, Japan), 1 μL of the RT first-strand cDNA product, 10 μM of each forward (F) and reverse (R) primer, 75 mM Tris-HCl (pH 8.3) containing 1 mg/L Tween 20, 2.5 mM dNTP, and 2 mM MgCl2. The products were run on 2% agarose gels and stained with ethidium bromide.

G6 Pase = experiment: Semiquantitative RT-PCR, liver tissue: G6 Pase mRNA; type: in vivo, C57BL/6J mice; conditions: STZ-induced diabetic mice; Metf 300 mg/kg/day oral, 28 days; relative to CON group (so in the source)
Experimental: as §5

[2] = tested on: STZ-induced diabetic mice; experiment: Histology of epididymal WAT and liver tissue in STZ-induced diabetic mice; type: in vivo, C57BL/6J mice; conditions: 28 days
Text: Parts of EWAT and liver tissue specimens were investigated as previously described.^31,32 Microscopic images were taken using a microscope (Olympus BX51, BX51, Olympus, Tokyo, Japan).

GLUT4 [3] = experiment: Western blotting: membrane GLUT4 in skeletal muscle of mice; conditions: STZ-induced diabetic mice; Metf 300 mg/kg/day oral, 28 days
Experimental: (§6) The study protocol was performed as previously described.^28 Diabetes was induced by intraperitoneal injection of streptozotocin (Sigma Chemical, St. Louis, Mo., USA) for 5 consecutive days. The dosage of STZ was 55 mg/kg (dissolved in 0.05 M cold sodium citrate buffer, pH 4.5). The normal control mice received only citrate buffer of the same volume.
(§7) During the experiment, all mice were fasted overnight, and blood was collected from the retro-orbital sinus. After dosing for 4 weeks, food was removed from the mice at night, and on the next day, the mice after 12 h of fasting were sacrificed. All of the individual tissues were collected and weighed, and parts of tissues were instantly frozen at −80° C. for later target gene analysis.
(§8) PPARα, PPARγ, and FAS proteins were performed by the liver and white adipose tissue of mice. Skeletal muscle from mice was subjected to GLUT4 expression level analysis, and the total membrane fractions were collected with buffer and determined using a described procedure. The protein contents of GLUT4, phospho-AMPK, and total AMPK were detected by Western blotting and determined as described.

AMPK = experiment: Western blotting: phospho-AMPK (Thr172)/total AMPK in skeletal muscle and liver of mice; conditions: STZ-induced diabetic mice; Metf 300 mg/kg/day oral, 28 days
Experimental: as §6, §7, §8

SREBP1c = experiment: Semiquantitative RT-PCR, liver tissue: SREBP1c mRNA; type: in vivo, C57BL/6J mice; conditions: STZ-induced diabetic mice; Metf 300 mg/kg/day oral, 28 days; relative to CON group (so in the source)
Experimental: as §5

PPARγ = experiment: Western blotting: PPARγ in liver and adipose tissue of mice; conditions: STZ-induced diabetic mice; Metf 300 mg/kg/day oral, 28 days
Experimental: as §6, §7, §8

[4] = tested on: STZ-induced diabetic mice; experiment: Tissue weight, body weight and food intake in STZ-induced diabetic mice; type: in vivo, C57BL/6J mice; conditions: 28 days
DGAT2 = experiment: Semiquantitative RT-PCR, liver tissue: DGAT2 mRNA; type: in vivo, C57BL/6J mice; conditions: STZ-induced diabetic mice; Metf 300 mg/kg/day oral, 28 days; relative to CON group (so in the source)
Experimental: as §5

PPARα [5] = experiment: Semiquantitative RT-PCR, liver tissue: PPARα mRNA; type: in vivo, C57BL/6J mice; conditions: STZ-induced diabetic mice; Metf 300 mg/kg/day oral, 28 days
Experimental: as §5

PPARα [6] = experiment: Western blotting: PPARα in liver of mice; conditions: STZ-induced diabetic mice; Metf 300 mg/kg/day oral, 28 days
Experimental: as §6, §7, §8

FAS = experiment: Western blotting: FAS in liver and adipose tissue of mice; conditions: STZ-induced diabetic mice; Metf 300 mg/kg/day oral, 28 days
Experimental: as §6, §7, §8

insulin [reference compound]
protein expressions of GLUT4 vs CON group (GLUT4 [1]): higher
levels of phospho-Akt (Ser473)/total Akt proteins vs CON group (Akt): higher

CN(C)C(=N)N=C(N)N [Metf, metformin, reference compound]
mRNA levels of PEPCK in liver (PEPCK): decreased
mRNA levels of G6 Pase in liver (G6 Pase): decreased
average area of adipocytes in epididymal WAT ([2]; Metf 300 mg/kg/day oral): 5308.9±204.7 μm^2
ballooning of hepatocyte (liver histology) ([2]; Metf 300 mg/kg/day oral): no ballooning phenomenon
membrane expression levels of GLUT4 in skeletal muscle vs STZ group (GLUT4 [3]): greater
muscular expression levels of phospho-AMPK/total AMPK compared with the STZ group (second sentence) (AMPK): increased
mRNA levels of SREBP1c in liver (SREBP1c): decreased
expression levels of PPARγ in adipose tissue (PPARγ): decreased
expression levels of PPARγ in the liver (PPARγ): decreased
Tissue weight: EWAT ([4]; Metf 300 mg/kg/day oral): 0.956 ± 0.047 wt %
Tissue weight: RWAT ([4]; Metf 300 mg/kg/day oral): 0.176 ± 0.023 wt %
Tissue weight: Visceral fat ([4]; Metf 300 mg/kg/day oral): 1.132 ± 0.054 wt %
mRNA levels of DGAT2 in liver (DGAT2): decreased
mRNA level of PPARα in liver (PPARα [5]): increased
expression levels of PPARα in the liver (PPARα [6]): increased
expression levels of FAS in adipose tissue (FAS): decreased
expression levels of FAS in the liver (FAS): decreased

CC(C)OC(=O)C(C)(C)Oc1ccc(C(=O)c2ccc(Cl)cc2)cc1 [Feno, fenofibrate, reference compound]
average area of adipocytes in epididymal WAT ([2]; Feno 250 mg/kg/day oral): 5373.8±194.6 μm^2
Tissue weight: BAT ([4]; Feno 250 mg/kg/day oral): 0.319 ± 0.030 wt %
Tissue weight: EWAT ([4]; Feno 250 mg/kg/day oral): 0.743 ± 0.059 wt %
Tissue weight: MWAT ([4]; Feno 250 mg/kg/day oral): 0.795 ± 0.070 wt %
Tissue weight: RWAT ([4]; Feno 250 mg/kg/day oral): 0.154 ± 0.016 wt %
Tissue weight: Visceral fat ([4]; Feno 250 mg/kg/day oral): 0.889 ± 0.075 wt %
